Among the test systems are NCI-H460 lung; RXF 393 renal; NCI-H226 lung; SR leukemia; CCRF-CEM leukemia; UACC-62 melanoma; 786-0 renal; SF-268 CNS; SK-OV-3 ovarian; MALME-3M melanoma; OVCAR-3 ovarian; OVCAR-8 ovarian; UO-31 renal; SNB-75 CNS; CAKI-1 renal; U251 CNS; MDA-N; SW-620 colon.
Common to all, as to assay: inhibition of tumour cell growth, NCI panel, 48 h

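Where inhibition never reached the appropriate level, the endpoint shown equals the highest concentration tested. Otherwise, values were interpolated linearly from a five-concentration, 48-hour dose response in 96-well plates. TGI: total growth inhibition.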

With `CC#C[I+]c1ccccc1`, the TGI in the experiment on NCI-H460 lung is above 100 µM; with RXF 393 renal it was 36.9 µM; in the experiment on NCI-H226 lung it was above 100 µM; with SR leukemia, 36.5 µM; with CCRF-CEM leukemia it was 18.7 µM; with UACC-62 melanoma, 57.6 µM. The TGI with 786-0 renal amounted to 28.4 µM; with SF-268 CNS, 35.1 µM; in the experiment with SK-OV-3 ovarian, 99.1 µM; in the experiment with MALME-3M melanoma, 38.2 µM; in the experiment on OVCAR-3 ovarian, 33.9 µM; in the experiment with OVCAR-8 ovarian, 31.2 µM. Also, the TGI with UO-31 renal was 97.5 µM; with SNB-75 CNS, above 100 µM; in the experiment with CAKI-1 renal, 27.9 µM; in the experiment on U251 CNS, 29.1 µM.
Consider `COc1nc2sc3c(c2c(=O)n1CCCSSCCCn1c(OC)nc2sc4c(c2c1=O)CCCC4)CCCC3`, for which the TGI in the experiment on RXF 393 renal, in the experiment on NCI-H226 lung, in the experiment on CCRF-CEM leukemia, with UACC-62 melanoma, in the experiment on 786-0 renal and in the experiment with MDA-N was above 100 µM each time. For the same compound, the TGI with SK-OV-3 ovarian, with MALME-3M melanoma, in the experiment with OVCAR-8 ovarian, in the experiment with UO-31 renal, in the experiment on SNB-75 CNS and with CAKI-1 renal was above 100 µM throughout. The TGI in the experiment on U251 CNS is above 100 µM.
As for `COc1ccc([C@H]2CC(=O)NCCCCN2)cc1`, the TGI with NCI-H460 lung, in the experiment with RXF 393 renal, in the experiment on NCI-H226 lung, in the experiment on SR leukemia, with CCRF-CEM leukemia and in the experiment with UACC-62 melanoma was above 100 µM throughout. Moreover, the TGI with 786-0 renal, with SF-268 CNS, with SK-OV-3 ovarian, with MALME-3M melanoma, in the experiment with OVCAR-8 ovarian and in the experiment on UO-31 renal was above 100 µM throughout. Besides, the TGI in the experiment on SNB-75 CNS, in the experiment on CAKI-1 renal and with U251 CNS was above 100 µM in each case.
On to `CN(C)c1nc(NN)c2c(-c3ccccc3)c(-c3ccccc3)oc2n1`, for which the TGI with RXF 393 renal, in the experiment on NCI-H226 lung, in the experiment on SR leukemia, in the experiment with CCRF-CEM leukemia, in the experiment on UACC-62 melanoma and with SW-620 colon was above 100 µM throughout. For the same compound, the TGI in the experiment with 786-0 renal, in the experiment on SF-268 CNS, in the experiment on SK-OV-3 ovarian, with OVCAR-8 ovarian, in the experiment on UO-31 renal and with SNB-75 CNS was above 100 µM each time. The TGI in the experiment with CAKI-1 renal and in the experiment with U251 CNS was above 100 µM throughout.
For `O=c1[nH]nc(Cc2ccc(Cl)cc2)n1/N=C\c1ccc(/C=N/n2c(Cc3ccc(Cl)cc3)n[nH]c2=O)cc1`, the TGI in the experiment on NCI-H460 lung, in the experiment on RXF 393 renal, in the experiment with NCI-H226 lung, with CCRF-CEM leukemia, in the experiment with UACC-62 melanoma and in the experiment with SW-620 colon was above 100 µM in each case. In addition, the TGI is 53.1 µM in the experiment with 786-0 renal; above 100 µM in the experiment on MDA-N; above 100 µM with SF-268 CNS; above 100 µM in the experiment on MALME-3M melanoma; above 100 µM with OVCAR-3 ovarian; above 100 µM with OVCAR-8 ovarian. For the same compound, the TGI is above 100 µM in the experiment with UO-31 renal, above 100 µM with CAKI-1 renal and 97.9 µM with U251 CNS.
On to `CC(=O)N[C@H]1CCCC[C@@H]1OC(C)=O`, for which the TGI in the experiment with NCI-H460 lung, with RXF 393 renal, in the experiment on NCI-H226 lung, in the experiment on UACC-62 melanoma, in the experiment with SW-620 colon and in the experiment on 786-0 renal was above 100 µM each time. The TGI in the experiment on MDA-N, with SK-OV-3 ovarian, with MALME-3M melanoma, in the experiment with OVCAR-3 ovarian, in the experiment with OVCAR-8 ovarian and in the experiment with SNB-75 CNS was above 100 µM each time. Moreover, the TGI in the experiment with CAKI-1 renal and with U251 CNS was above 100 µM in each case.
On to `Cc1n[nH]c(=O)n1/N=C/c1c[nH]c2ccccc12`, for which the TGI in the experiment on NCI-H460 lung is above 100 µM; with RXF 393 renal, 82.3 µM; in the experiment with SR leukemia it was above 100 µM; with CCRF-CEM leukemia, above 100 µM; in the experiment with UACC-62 melanoma, above 100 µM; in the experiment with SW-620 colon it was above 100 µM. For the same compound, the TGI with 786-0 renal, with SF-268 CNS, with SK-OV-3 ovarian, in the experiment on MALME-3M melanoma, in the experiment on OVCAR-3 ovarian and in the experiment on OVCAR-8 ovarian was above 100 µM in each case. The TGI in the experiment with UO-31 renal, in the experiment with SNB-75 CNS, with CAKI-1 renal and in the experiment with U251 CNS was above 100 µM throughout.
On to `O=[N+]([O-])c1cc(Cl)cc2cc(Cl)cnc12`, for which the TGI with NCI-H460 lung, in the experiment on RXF 393 renal, with NCI-H226 lung, in the experiment on SR leukemia, in the experiment on CCRF-CEM leukemia and with UACC-62 melanoma was above 100 µM in each case. Also, the TGI in the experiment on SW-620 colon, in the experiment with 786-0 renal, with SF-268 CNS, in the experiment with MALME-3M melanoma, with OVCAR-3 ovarian and with OVCAR-8 ovarian was above 100 µM each time. Besides, the TGI is above 100 µM in the experiment on UO-31 renal, 98 µM with SNB-75 CNS, above 100 µM with CAKI-1 renal and above 100 µM with U251 CNS.
On to `Cc1cccc(-c2cc(=S)c3cc(N4CCCC4)ccc3[nH]2)c1`, for which the TGI with RXF 393 renal, with NCI-H226 lung, with CCRF-CEM leukemia, in the experiment on UACC-62 melanoma, in the experiment with SW-620 colon and in the experiment on 786-0 renal was above 100 µM in each case. Also, the TGI in the experiment on MDA-N, with SF-268 CNS, with SK-OV-3 ovarian, with OVCAR-3 ovarian, with UO-31 renal and in the experiment on SNB-75 CNS was above 100 µM throughout. Also, the TGI in the experiment on CAKI-1 renal and with U251 CNS was above 100 µM throughout.

The record behind these values is PubChem BioAssay (NCI).
